In article PMC4970648, “Studies on 16α-Hydroxylation of Steroid Molecules and Regioselective Binding Mode in Homology-Modeled Cytochrome P450-2C11” (International Journal of Medicinal Chemistry, 2010):

Target: [3H]PROG 16α-hydroxylating activity by male rat liver microsomes (CYP2C11) (Rattus norvegicus, UniProt P08683)
Assay: Inhibition of [3H]progesterone 16α-hydroxylation by adult male rat liver microsomes
Conditions: not given
Description: Approximately 95-day-old male Wistar rats, castrated on the 70th day after birth, were used. The liver microsomes were prepared as previously described. The experiments were performed according to instrumental guidelines for the care and use of laboratory animals.
The metabolism by rat liver microsomes were examined, according to our previously described procedure. Briefly, the microsomal suspension (400–600 μg of protein/2.2 mL, total volume of the reaction mixture) was preincubated with [3H]PROG (20 nM) under the absence or presence of an unlabeled steroid (0.01–10 μM) at 36°C for 30 min. […] After the incubation, two identical samples were mixed and extracted with toluene. The toluene-extractable [3H]PROG metabolites (more than 90%) were isolated by various paper chromatographic systems and then identified by recrysallization method. Other miscellaneous procedures are described in our previous papers.

Sequence of [3H]PROG 16α-hydroxylating activity by male rat liver microsomes (CYP2C11) (P08683 whole entry): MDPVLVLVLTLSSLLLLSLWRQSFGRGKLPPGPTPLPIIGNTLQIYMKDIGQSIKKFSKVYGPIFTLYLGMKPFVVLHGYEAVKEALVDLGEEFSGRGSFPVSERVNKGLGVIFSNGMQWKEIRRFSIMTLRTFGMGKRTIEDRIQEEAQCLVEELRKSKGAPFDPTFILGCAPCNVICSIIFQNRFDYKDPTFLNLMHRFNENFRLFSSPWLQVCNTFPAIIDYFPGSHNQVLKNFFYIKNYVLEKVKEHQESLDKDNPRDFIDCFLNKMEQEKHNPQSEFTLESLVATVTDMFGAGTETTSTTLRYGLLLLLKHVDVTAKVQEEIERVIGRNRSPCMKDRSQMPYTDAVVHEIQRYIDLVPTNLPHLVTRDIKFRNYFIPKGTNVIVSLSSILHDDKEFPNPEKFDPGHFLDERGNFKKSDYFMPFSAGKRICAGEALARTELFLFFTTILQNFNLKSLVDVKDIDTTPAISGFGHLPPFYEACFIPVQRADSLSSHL

Compound	[3H]PROG16α-hydroxylation (IC40) [µM]
CC(=O)[C@H]1[C@H](O)C[C@H]2[C@@H]3CC[C@H]4C[C@@H](O)CC[C@]4(C)[C@H]3CC[C@@]21C [compound 36, 3β,16α-Dihydroxy-5α-pregnan-20-one]	1.15

Same assay, conditions: 40% inhibition not reached at 10 μM of unlabeled steroid; male rat liver microsomes

Compound	[3H]PROG16α-hydroxylation (IC40), given as bound in μM
C[C@]12CC[C@@H](O)C[C@@H]1CC[C@@H]1[C@@H]2CC[C@]2(C)[C@@H](OS(=O)(=O)O)CC[C@@H]12 [compound 64, 5α-Androstan-3α,17β-diol-17-sulfate]	>10 µM
C[C@]12CC[C@H]3[C@@H](CC=C4C[C@@H](O)CC[C@@]43C)[C@@H]1CC[C@@H]2C(=O)COS(=O)(=O)O [compound 24, 21-Sulfatepregnenolone]	>10 µM
C[C@@]12CCC[C@H]1[C@@H]1CC[C@@H]3CCCC[C@]3(C)[C@H]1CC2 [compound 47, 5β-Androstane]	>10 µM
C[C@@]12CCC[C@H]1[C@@H]1CC[C@H]3CCCC[C@]3(C)[C@H]1CC2 [compound 46, 5α-Androstane]	>10 µM
CC(=O)[C@H]1CC[C@H]2[C@@H]3CCC4=CC(=O)CC[C@]4(C)[C@H]3CC[C@]12CO [compound 10, 18-Hydroxyprogesterone]	>10 µM
CC(=O)[C@H]1CC[C@H]2[C@@H]3CCC4=CC(=O)CC[C@]4(CO)[C@H]3CC[C@]12C [compound 11, 19-Hydroxyprogesterone]	>10 µM
C[C@]12CC[C@H]3[C@@H](CCC4=CC(=O)CC[C@@]43C)[C@@H]1CC[C@@H]2C(=O)O [compound 39, 4-Androsten-3-one; 17-β-carboxylaic acid]	>10 μM^e
C[C@]12CC[C@H](OS(=O)(=O)O)CC1=CC[C@@H]1[C@@H]2CC[C@]2(C)C(=O)CC[C@@H]12 [compound 44, Dehydroepiandrosterone-3-sulfate]	>10 µM
CC[C@H]1CC[C@H]2[C@@H]3CC=C4C[C@@H](O)CC[C@]4(C)[C@H]3CC[C@]12C [compound 25, 5-Pregnen-3β-ol]	>10 µM
3β-Pregnan-3-one [compound 37]	>10 µM
C[C@]12CCCC[C@@H]1CC[C@@H]1[C@@H]2CC[C@]2(C)[C@@H](O)CC[C@@H]12 [compound 52, 5α-Androstan-17β-ol]	>10 µM

Same assay, conditions: IC40 of progesterone 1 relative to IC40 of 33

Compound	observed inhibitory potency index against [3H]PROG 16α-hydroxylation
CC(=O)[C@H]1CC[C@H]2[C@@H]3CC[C@@H]4C[C@H](O)CC[C@]4(C)[C@H]3CC[C@]12C [compound 33, 3α-Hydroxy-5 β -pregnan-20-one]	31.46

Same assay, conditions: molar concentration of unlabeled steroid causing 40% inhibition; [3H]PROG 20 nM; unlabeled steroid 0.01–10 μM; male rat liver microsomes

Compound	[3H]PROG16α-hydroxylation (IC40) [µM]
C[C@]12CC[C@H]3[C@@H](CC=C4C[C@@H](O)CC[C@@]43C)[C@@H]1CC[C@@H]2C(=O)CO [compound 22, 21-Hydroxypregnenolone]	0.462
CC(=O)[C@H]1CC[C@H]2[C@@H]3CC[C@@H]4C[C@H](O)CC[C@]4(C)[C@H]3CC[C@]12C [compound 33, 3α-Hydroxy-5 β -pregnan-20-one]	0.024
C[C@]12CCCC[C@H]1CC[C@@H]1[C@@H]2CC[C@]2(C)[C@@H](O)CC[C@@H]12 [compound 53, 5β-Androstan-17β-ol]	0.365
C[C@]12CC[C@H]3[C@@H](CC=C4C[C@@H](O)CC[C@@]43C)[C@@H]1CC[C@@H]2O [compound 45, 5-Androstenediol]	0.64
CC(=O)O[C@@H]1C[C@H]2[C@@H]3CC[C@H](C(C)=O)[C@@]3(C)CC[C@@H]2[C@@]2(C)CCC(=O)C=C12 [compound 4, 6β-Acetoxyprogesterone]	0.74
C[C@]12CC[C@H](O)CC1=CC[C@@H]1[C@@H]2CC[C@]2(C)C(=O)CC[C@@H]12 [compound 43, Dehydroepiandrosterone]	0.68
CC(=O)[C@H]1CC[C@H]2[C@@H]3CC[C@@H]4CC(=O)CC[C@]4(C)[C@H]3CC[C@]12C [compound 28, 5β-Pregnan-3,20-dione]	0.395
C[C@]12CCC(=O)C[C@H]1CC[C@@H]1[C@@H]2CC[C@]2(C)C(=O)CC[C@@H]12 [compound 55, 5β-Androstan-3,17-dione]	0.48
